# According to patent publication US10165776B2, “Substituted pyrazolylpyrazole derivative and use of same as herbicide” (KYOYU AGRI CO., LTD., priority 2015, dated 2019):
# Key:
# Digitaria ciliaris = test: Weed foliar treatment test (Test 4, 4.0 to 5.0 leaf stage); type: in vivo; conditions: 10 g a.i./10 a; foliar spray at 4.0 to 5.0 leaf stage of Digitaria ciliaris (plant height 10 cm to 15 cm); 20 days at 25° C.
# Method: (§1) Field soil was filled into a 1/4500 are pot followed by seeding with Digitaria ciliaris and Galinsoga parviflora, covering with soil and cultivating in a glass greenhouse at an average atmospheric temperature of 25° C. Wettable powders of Target Compound (I) shown in Table 1 prepared in compliance with the preparation examples were diluted with water to the prescribed amount of chemical and uniformly sprayed onto the weeds using 100 liters of sprayed water per 10 are when Digitaria ciliaris had grown to the 4.0 to 5.0 leaf stage (plant height: 10 cm to 15 cm). After treating for 20 days in a glass greenhouse at an average atmospheric temperature of 25° C., the herbicidal efficacy thereof was investigated. Evaluation of herbicidal efficacy was carried out in the same manner as the above-mentioned Test Example 1.
# Galinsoga parviflora = test: as above; type: in vivo; conditions: 10 g a.i./10 a; foliar spray at 4.0 to 5.0 leaf stage of Digitaria ciliaris (plant height 10 cm to 15 cm); 20 days at 25° C.
# Method: as §1
SMILES,"herbicidal efficacy, Digitaria ciliaris (Digitaria ciliaris)","herbicidal efficacy, Galinsoga parviflora (Galinsoga parviflora)"
N#Cc1cnn(-c2nn3c(c2Cl)CCCC3)c1NC(=O)Cc1cccc(Cl)c1 [Compound 12],10 (10: 100%),10 (10: 100%)
N#Cc1cnn(-c2nn3c(c2Cl)CCCC3)c1NC(=O)Cc1ccc(Cl)cc1Cl [Compound 18],10 (10: 100%),10 (10: 100%)
COc1ccc(CC(=O)Nc2c(C#N)cnn2-c2nn3c(c2Cl)CCCC3)cc1 [Compound 14],10 (10: 100%),10 (10: 100%)
COc1ccccc1CC(=O)Nc1c(C#N)cnn1-c1nn2c(c1Cl)CCCC2 [Compound 7],10 (10: 100%),10 (10: 100%)
N#Cc1cnn(-c2nn3c(c2Cl)CCCC3)c1NC(=O)Cc1ccc(Cl)cc1 [Compound 16],10 (10: 100%),10 (10: 100%)
COc1cccc(CC(=O)Nc2c(C#N)cnn2-c2nn3c(c2Cl)CCCC3)c1 [Compound 10],10 (10: 100%),10 (10: 100%)
N#Cc1cnn(-c2nn3c(c2Br)CCCC3)c1NC(=O)Cc1ccccc1 [Compound 4],10 (10: 100%),10 (10: 100%)
